| melting point [°C] | SMILES |
| --- | --- |
| 93 to 94 | COC(=O)c1c(Cl)cc(Cl)cc1NC(=O)CSc1ccccc1C |
| 182 to 186 | CCCCc1nc(Cl)c(CO)n1Cc1ccc(-c2ccccc2-c2nnnn2-c2ccc([N+](=O)[O-])cc2)cc1 |
| 226 to 227 | CC1(c2ccc(N)cc2)C(=O)Nc2cc(Cl)cc(Cl)c2C1=O (stereo not drawn) |
| 130 to 131 | COc1cc(C)ccc1S(=O)(=O)N1CCC(=O)C(C(c2ccccc2)c2ccccc2)C1 (stereo not drawn) |
| 194 to 197 | Cc1cc2c(c(C)n1)c(=O)oc1ccccc12 |
| 200 | O=C(O)c1cc2c(F)c(F)c(F)c(F)c2s1 |
| 208 to 210 | COc1ccc(S(=O)(=O)Nc2cccnc2Nc2ccc(OC(=O)c3ccccc3)cc2)cc1 |
| 265 to 266 | O=C1CCC(c2ccc(-c3nccs3)cc2)=NN1 |
| 211 to 212 | COc1ccnc(CCc2nc3cc(-c4ccc(S(=O)(=O)NCc5ccccc5)cc4)cnc3[nH]2)c1 |
| 107 to 108 | C[C@@H](O)CNC(=O)N1CC(c2ccc(C(F)(F)F)cc2)C1 |
| 234 to 237 | O=C(O)c1cc(C(c2ccccc2)(c2ccccc2)c2ccccc2)ccc1O |
| 164 to 166 | Fc1ccc(N2CCN(CCCNc3ccc(-n4ccnc4)cc3)CC2)cc1 |
| 164 to 165 | Nc1ccnc(/C=C/c2ccccc2)c1 |
| 101 to 104 | CC(C)(C)c1cc(CC(C)(C)[N+](=O)[O-])cc(C(C)(C)C)c1O |
| 147 to 149 | COc1ccc2[nH]cc(C=C3OC(=O)N(Cc4cc(C(F)(F)F)cc(C(F)(F)F)c4)C3=O)c2c1 |
| 175 to 178 | CCCc1c(OCCCCCOc2ccc3ccc(OCC(=O)O)cc3c2CCC(=O)O)ccc2c1OCCC2=O |
| 168 to 170 | CS(=O)(=O)c1cc(S(F)(F)(F)(F)F)ccc1C(=O)c1cnoc1C1CC1 |
| 234 to 235 | NC(=O)c1ccc(N2CCN(Cc3cn4cc(Cl)cc(Cl)c4n3)CC2)cc1 |
| 64 to 66 | CCOCc1cc2ccc(OC)cc2oc1=O |
| 123 to 124 | CC(C)(C)OC(=O)NCC1Cc2ccc(CC(=O)O)cc2C1 (stereo not drawn) |
| 150 to 155 | Nn1c(C(F)(F)F)cc(=O)n(-c2ccc(O)cc2)c1=O |

| melting point [°C] | SMILES |
| --- | --- |
| 154 to 155 | Cc1nn(-c2ccccn2)c2ncc(C(=O)N(C)c3ccccc3)c(Cl)c12 |
| 100 to 104 | COC(=O)CC(Cc1ccccc1)C(=O)N[C@@H](Cc1ccccc1)C(=O)O (stereo partly drawn) |
| 124 to 125 | Cc1oc(-c2ccccc2)nc1COc1ccc(Cn2cc(CCC(=O)O)cn2)cc1 |
| 58 to 60 | CCCCCCCCc1ccc(CCC(CO)(CO)NC(C)=O)s1 |
| 110 | CC(C)(C)OC(=O)CO/N=C/c1cccc([N+](=O)[O-])c1 |
| 230 to 232 | N#Cc1cnn2c(-c3ccccc3)ccnc12 |
| 264 | CC(C)(CO)NS(=O)(=O)c1cc(NC(=O)c2cnn3c(C(F)(F)F)cc(-c4ccc(C(F)(F)F)c(OCC(F)(F)F)c4)nc23)c(Cl)s1 |
| 268 to 271 | O=S1(=O)N=CN(C2CC2)c2cc(Br)ccc21 |
| 220 | CNCC(=O)N[C@@H](CCCNC(=N)N)C(=O)N[C@@H](CCCNC(=N)N)C(=O)N[C@@H](C)P(=O)(O)O |
| 135 to 136 | O=S(=O)(NCCc1cccc(CCNS(=O)(=O)c2ccc(Cl)cc2)c1)c1ccc(Cl)cc1 |
| 91 to 93 | CCCCCCCCCCCCCCCCNS(=O)(=O)c1ccc(Cl)c([N+](=O)[O-])c1 |
| 170 to 173 | COc1ccc2c(Cc3c(Cl)cncc3Cl)nnc(N(C)C)c2c1 |
| 103 to 104 | O=C1OCCN1CCn1ccnc1[N+](=O)[O-] |
| 65 | c1ccc(OCCSCc2nnc(-c3ccc(OCCN4CCCC4)cc3)o2)cc1 |
| 278 to 280 | O=C(O)c1ccc(NC(=O)c2ccc3c(c2)OCCO3)cc1 |
| 82 to 83 | Cc1ccc(S(=O)(=O)OCC2CCc3sc(C(C)C)nc3C2)cc1 (stereo not drawn) |
| 189 to 191 | Cc1cc2cc(CN3CCC(CCC(=O)N4CCCCC4)CC3)cnc2cc1NC(=O)c1ccc(-c2ccc(F)cc2)cc1 |
| 243 to 244 | COc1ccc2cc(CN3CCC(NC(=O)NC(=O)c4ccccc4)CC3)ccc2c1 |
| 200 to 202 | COc1ccc(C=CC(=O)O)cc1-c1cc2c(cc1OCc1ccccc1)C(C)(C)CCC2(C)C |
| 256 to 259 | O=C(O)CN1C(=O)C(NC(CCc2ccccc2)C(=O)O)CCc2ccccc21 (stereo not drawn) |
| 90 to 92 | CC(C)COC(=O)COC(=O)CON1CC(NC(=O)OCc2ccccc2)C1=O (stereo not drawn) |

| melting point [°C] | SMILES |
| --- | --- |
| 104 to 107 | NNc1ncccc1-c1cccnc1 |
| 218 to 222 | Cc1noc(C)c1-c1nn(C(C)c2oc3ccccc3c(=O)c2-c2cccc(F)c2)c2ncnc(N)c12 (stereo not drawn) |
| 139 | CC(C)(O)C(=O)c1ccc(OCC(N)=O)cc1 |
| 176 to 177 | CCOC(=O)c1cc2cc(OCCCS(C)(=O)=O)cc(N(C)S(=O)(=O)c3ccccn3)c2[nH]1 |
| 108 to 109 | CCOC(=O)C(C)(C)c1ccc(CCNC(=O)c2ccc(Cl)cc2)cc1 |
| 130 to 134 | CCON=C(C)c1ccc2c(c1)ncn2-c1cccc(COCc2ncnn2C)c1 |
| 243 to 245 | CCCCC1Cc2c(n(-c3ccc(F)cc3)c3ncccc3c2=O)O1 (stereo not drawn) |
| 278 to 281 | O=C(O)COc1ccc(OCC2CCN(c3ccncc3)CC2)cc1 |
| 153 | CS(=O)(=O)C(=C1CN(C(c2ccccc2)c2ccccc2)C1)c1cccc(N2CCCC2)c1 |
| 70 to 72 | COc1ccc(C(=O)CC(=O)C(F)F)cc1F |
| > 300 | O=C(O)c1ccccc1C(=O)Nc1ccc2c(=O)n3c(nc2c1)C(=Cc1ccccc1)CC3 |
| 175 to 178 | O=c1[nH]c(=O)n(Cc2ccc(Oc3ccc(Cn4oc(=O)[nH]c4=O)cc3)cc2)o1 |
| 136 to 137 | Clc1cccc(Cn2ccc(CN3CCC(c4ccccc4)(c4ccccc4)CC3)n2)c1 |
| 65 to 68 | CCCN(CCC)C(=O)c1cc(C(=O)N[C@@H](Cc2cc(F)cc(F)c2)[C@H](O)CNCc2cc(CN(C)C)ccn2)cc(-c2ncco2)c1 |
| 237 to 238 | CCCCC(=O)NC(Cc1ccccc1)C(=O)Nc1c(C(C)C)cccc1C(C)C (stereo not drawn) |
| 105 to 106 | CCOC(=O)Cc1nc(-c2ccc(Cl)cc2)oc1-c1ccco1 |
| 160 to 166 | CCCc1c(OCCCOc2ccc(O)cc2)ccc2c1OC(CCC(=O)O)(CCC(=O)O)CC2=O |
| 230 | CCCC1=C(C#N)C(c2cccc3c2OCCC3)c2c[nH]nc2N1 (stereo not drawn) |
| 246 to 249 | NC(=O)c1cc(Oc2ccc(Cl)c(Cl)c2)cnc1O |
| 224 | Cc1cc2cc(Oc3ccccc3)cnc2cc1C |

| SMILES | melting point [°C] |
| --- | --- |
| CS(=O)(=O)CS(=O)(=O)OCCCl | 60 to 62 |
| CC12CCC3C(CC4OC45CC(O)CCC35C)C1CCC2=O (stereo not drawn) | 197 to 200 |
| NC(Cc1ccccc1)C(O)C(F)(F)F (stereo not drawn) | 110 to 111 |
| N=C1N(Cc2ccc(Cl)nc2)CCN1[N+](=O)[O-] | 81 |
| OCCN1CC[C@@H]2[C@H]1CCC[C@@]2(O)c1ccc(Cl)c(Cl)c1 (racemic) | 161 |
| O=C(Oc1ccccc1Cl)c1ncn2c1[C@@H]1CCCN1C(=O)c1c(Cl)cccc1-2 | 214 to 215 |

Source: a melting point compilation (Tetko et al.; mined from patent text by program, amines drawn as free bases though some values may be those of a salt)
